Where two headings read alike, the source gives them in different places.
Experiments:
[1] = tested on: MOLM14 cells (MLL-AF9); assay: Proliferation assay (spheroid-like growth, 8 d, live-cell imaging), MOLM14; assay type: cell-based, human; details: absolute IC50 from AUC of confluence, read-out: (3) Spheroid assay MOLM14 (IC50 (μM))
Description: (§1) The anti-proliferative effect of menin/MLL protein/protein interaction inhibitor test compounds was assessed in human leukemia cell lines. The cell lines MV-4-1 1 and MOLM14 harbor MEL translocations and express the MEL fusion proteins MLL-AF4 and MLL-AF9, respectively, as well as the wildtype protein from the second allele. […] K562 was used as a control cell line containing two MLL wildtype alleles in order to exclude compounds that display general cytotoxic effects.
MV-4-1 1 and MOLM14 were cultured in RPMI-1640 (Sigma Aldrich) supplemented with 10% fetal bovine serum (HyClone), 2 mM L-glutamine (Sigma Aldrich) and 50 μg/ml gentamycin (Gibco). K562 were propagated in RPMI-1640 (Sigma Aldrich) supplemented with 20% fetal bovine serum (HyClone), 2 mM L-glutamine (Sigma Aldrich) and 50 μg/ml gentamycin (Gibco).
In order to assess the anti-proliferative effects, 1,500 MV-4-1 1, 300 MOLM14 or 750 K562 cells were seeded in 200 μl media per well in 96-well round bottom, ultra-low attachment plates (Costar, catalogue number 7007). Cell seeding numbers were chosen based on growth curves to ensure linear growth throughout the experiment. Test compounds were added at different concentrations and the DMSO content was normalized to 0.3%>. Cells were incubated for 8d at 37° C. and 5% C02. Spheroid like growth was monitored in real-time by live-cell imaging (IncuCyteZOOM, Essenbio, 4× objective) acquiring one image every four hours for 8d. Confluence (%) as a measure of spheroid size was determined using an integrated analysis tool.
In order to determine the cumulative effect of the test compounds over time, the area under the curve (AUC) in a plot of confluence against time was calculated. Confluence at the beginning of the experiment (t=0) was used as baseline for the AUC calculation.
Absolute IC50 values were calculated according to the following procedure: % Control=(AUC sample/AUC control)*100 AUC control=mean AUC of control values(cells without compound/DMSO as vehicle control)
A non-linear curve fit was applied using the least squares (ordinary) fit method to the plot of % control versus compound concentration. Based on this, the absolute IC50 value (half maximal inhibitory concentration of the test compound causing an anti-proliferative effect of 50% relative to the vehicle control) was calculated.

[2] = target: T1, menin / FITC-MBM1 peptide (Menin/MLL) (Homo sapiens, UniProt O00255); assay: Menin/MLL fluorescence polarization (FP) assay; assay type: binding; details: read-out: (1) Menin FP assay (IC50 (μM))
T1 sequence (O00255 1-610): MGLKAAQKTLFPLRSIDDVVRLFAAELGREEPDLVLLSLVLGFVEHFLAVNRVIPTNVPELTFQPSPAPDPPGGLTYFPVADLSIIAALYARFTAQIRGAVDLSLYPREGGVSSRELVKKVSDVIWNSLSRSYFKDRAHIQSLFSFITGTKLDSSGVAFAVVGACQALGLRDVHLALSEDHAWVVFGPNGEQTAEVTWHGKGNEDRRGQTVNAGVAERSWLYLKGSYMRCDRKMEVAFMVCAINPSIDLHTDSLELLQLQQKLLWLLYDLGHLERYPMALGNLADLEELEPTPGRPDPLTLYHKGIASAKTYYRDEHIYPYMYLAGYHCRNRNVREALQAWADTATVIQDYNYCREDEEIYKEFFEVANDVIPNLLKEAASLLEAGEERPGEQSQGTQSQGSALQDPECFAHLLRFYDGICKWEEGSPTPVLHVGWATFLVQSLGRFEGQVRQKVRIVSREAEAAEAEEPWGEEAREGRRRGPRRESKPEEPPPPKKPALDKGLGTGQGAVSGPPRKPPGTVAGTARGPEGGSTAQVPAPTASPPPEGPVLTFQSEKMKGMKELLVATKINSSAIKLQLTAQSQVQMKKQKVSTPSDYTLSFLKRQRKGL
Description: Pharmacological Part 1) Menin/MLL Fluorescence Polarization Assay
To a non-surface binding, black 384-well microtiter plate was added 50 nL 160× test compound in DMSO and 4 μL 2× menin in assay buffer (40 mM TrisHCl, pH 7.5, 50 mM NaCl, 1 mM DTT and 0.001% Tween 20). After incubation of test compound and menin for 10 min at ambient temperature, 4 μL 2×FITC-MBM1 peptide (FITC-β-alanine-SARWRPPARPGT-NH2) in assay buffer was added, the microtiter plate centrifuged at 1000 rpm for 1 min and the assay mixtures incubated for 15 min at ambient temperature. The relative amount of menin -FITC-MBM1 complex present in an assay mixture is determined by measuring the fluorescence polarization (FP) of the FITC label with a BMG Pherastar plate reader (ex. 485 nm/em. 520 nm) at ambient temperature. The final concentrations of reagents in the binding assay are 100 nM menin, 5 nM FITC-MBM1 peptide and 0.625%>DMSO in assay buffer. Dose-response titrations of test compounds are conducted using an 11 point, three-fold serial dilution scheme, starting at 31 μM.
Compound potencies were determined by first calculating % inhibition at each compound concentration according to equation 1: % inhibition=((HC−LC)−(FPcompound−LC))/(HC−LC))*100 (Eqn 1)
Where LC and HC are the FP values of the assay in the presence or absence of a saturating concentration of a compound that competes with FITC-MBM1 for binding to menin, and FP^compound is the measured FP value in the presence of the test compound. HC and LC FP values represent an average of at least 16 replicates per plate.
Where Bottom and Top are the lower and upper asymptotes of the dose-response curve, respectively, IC50 is the concentration of compound that yields 50% inhibition of signal and h is the Hill coefficient.

[3] = tested on: K562 cells (two MLL wildtype alleles); assay: Proliferation assay (spheroid-like growth, 8 d, live-cell imaging), K562 control cell line; assay type: cell-based; details: Homo sapiens, 192 h, absolute IC50 from AUC of confluence, read-out: (3) Spheroid assay K562
Description: as §1
MV-4-1 1 and MOLM14 were cultured in RPMI-1640 (Sigma Aldrich) supplemented with 10% fetal bovine serum (HyClone), 2 mM L-glutamine (Sigma Aldrich) and 50 μg/ml gentamycin (Gibco). […]
In order to assess the anti-proliferative effects, 1,500 MV-4-1 1, 300 MOLM14 or 750 K562 cells were seeded in 200 μl media per well in 96-well round bottom, ultra-low attachment plates (Costar, catalogue number 7007). […] Spheroid like growth was monitored in real-time by live-cell imaging (IncuCyteZOOM, Essenbio, 4× objective) acquiring one image every four hours for 8d. Confluence (%) as a measure of spheroid size was determined using an integrated analysis tool.
In order to determine the cumulative effect of the test compounds over time, the area under the curve (AUC) in a plot of confluence against time was calculated. […]

Row | Compound | IC50 ([1]; Homo sapiens, MOLM-14, 192 h) | IC50 [2] | IC50 [1] | IC50 [3]
1 | CC(C)CNC1CCCN(c2ncnc3sc(CC(F)(F)F)cc23)CC1 (single isomer, unassigned) [Compound B1A, N-isobutyl-1-(6-(2,2,2-trifluoroethyl)thieno[2,3-d]pyrimidin-4-yl)azepan-4-amine] | 11.3 µM | 0.054 µM |  | 
2 | CC(C)CNC1CCCN(c2ncnc3sc(CC(F)(F)F)cc23)CC1 (single isomer, unassigned) [Compound B1B, N-isobutyl-1-(6-(2,2,2-trifluoroethyl)thieno[2,3-d]pyrimidin-4-yl)azepan-4-amine] |  | 0.44 µM | > 15 µM | 
3 | FC(F)(F)Cc1cc2c(N3CCC[C@H](NCc4ccccc4)CC3)ncnc2s1 [Compound 4, (S)-N-benzyl-1-(6-(2,2,2-trifluoroethyl)thieno[2,3-d]pyrimidin-4-yl)azepan-4-amine] | 7.6 µM | 0.23 µM |  | 8.8 µM
4 | FC(F)(F)Cc1cc2c(N3CCC[C@@H](NCc4ccccc4)CC3)ncnc2s1 [Compound 3, (R)N-benzyl-1-(6-(2,2,2-trifluoroethyl)thieno[2,3-d]pyrimidin-4-yl)azepan-4-amine] | 3.1 µM | 0.038 µM |  | 9.7 µM
